According to patent US20170305943A1, “COMPOUNDS FOR THE TREATMENT OF BACTERIAL INFECTIONS” (priority 2014, published 2017):
≈ marks a conversion by molar mass, not a printed value.

Experiments:
Assay in all cases: Bacterial Assay: Determination of Antibacterial Activity (MIC, broth microdilution or agar dilution)
Type in all cases: cell-based
[1] = test system: Clostridium difficile (Isolate ID BI-9); conditions: Clostridioides difficile, 48 h, read-out: MIC (μg/mL) C. difficile (B-I9)
Method in brief: (§1)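 MICs were set by CLSI broth microdilution or agar dilution for anaerobes, read visually after 48 hours at 37° C. under anaerobic gas packs. Medium was reinforced clostridial medium with 0.1% defibrinated horse blood; values are binned as A ≦1.01, B >1.0-4.0, C >4.0-16 μg/mL.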

[2] = test system: Clostridium difficile (Isolate ID ATCC 9689); conditions: Clostridioides difficile, ATCC9689, 48 h, read-out: C. difficile MIC Activity Range
Method in brief: as §1

[3] = test system: Clostridium difficile (Isolate ID 027-01); conditions: Clostridioides difficile, 48 h, read-out: MIC (μg/mL) C. difficile (027-01)
Method in brief: as §1

Row | SMILES | MIC [1] [µg/mL] | MIC [2] [µg/mL] | MIC [3] [µg/mL]
1 | NC(=O)c1c(F)ccc(OCc2ccnc(-c3ccc(Cl)cc3)n2)c1F [Compound 192, 3-{[2-(4-chlorophenyl)pyrimidin-4-yl]methoxy}-2,6-difluorobenzamide] | 1 (≈ 2.66 µM) | < 1.01 | 1 (≈ 2.66 µM)
2 | NC(=O)c1c(F)ccc(OCc2cccc(-c3ccc(Cl)cc3)n2)c1F [Compound 194, 3-{[6-(4-chlorophenyl)pyridin-2-yl]methoxy}-2,6-difluorobenzamide] | 0.5 (≈ 1.33 µM) | < 1.01 | 0.5 (≈ 1.33 µM)
3 | NC(=O)c1c(F)ccc(OCc2nc(C#Cc3cccc(Cl)c3)cs2)c1F [Compound 198, 3-({4-[(3-chlorophenyl)ethynyl]-1,3-thiazol-2-yl}methoxy)-2,6-difluorobenzamide] | 0.25 (≈ 0.618 µM) | < 1.01 | 0.12 (≈ 0.296 µM)
4 | NC(=O)c1c(F)ccc(OCc2nc(-c3ccc(Cl)s3)cs2)c1F [Compound 203, 3-{[4-(5-chlorothiophen-2-yl)-1,3-thiazol-2-yl]methoxy}-2,6-difluorobenzamide] | 1 (≈ 2.59 µM) | < 1.01 | 0.5 (≈ 1.29 µM)
5 | CNC(=N)c1cccc(OCc2nc(-c3ccc(Cl)cc3)ns2)c1F [Compound 205, 3-{[3-(4-chlorophenyl)-1,2,4-thiadiazol-5-yl]methoxy}-2-fluoro-N-methylbenzenecarboximidamide] | 16 (≈ 42.5 µM) | 4 to 16 (≈ 10.6 to 42.5 µM) | 16 (≈ 42.5 µM)
6 | COc1ncc(-c2csc(COc3ccc(F)c(C(N)=O)c3F)n2)s1 [Compound 207, 2,6-difluoro-3-[(2′-methoxy-4,5′-bi-1,3-thiazol-2-yl)methoxy]benzamide] | 4 (≈ 10.4 µM) | 1 to 4 (≈ 2.61 to 10.4 µM) | 4 (≈ 10.4 µM)
7 | NC(=O)c1c(F)ccc(OCc2nc(-c3ccc(C(F)(F)F)cc3)c(Br)o2)c1F [Compound 208, 3-({5-bromo-4-[4-(trifluoromethyl)phenyl]-1,3-oxazol-2-yl}methoxy)-2,6-difluorobenzamide] | 0.06 (≈ 0.126 µM) | < 1.01 | 0.06 (≈ 0.126 µM)
8 | NC(=O)c1c(F)ccc(OCc2nc(-c3ccc(OC(F)(F)F)cc3)c(Br)o2)c1F [Compound 209, 3-({5-bromo-4-[4-(trifluoromethoxy)phenyl]-1,3-oxazol-2-yl}methoxy)-2,6-difluorobenzamide] | 0.25 (≈ 0.507 µM) | < 1.01 | 0.12 (≈ 0.243 µM)
9 | NC(=O)c1c(F)ccc(OCc2nc(-c3ccc(OC(F)(F)F)cc3)c(C(F)(F)F)o2)c1F [Compound 213, 2,6-difluoro-3-({4-[4-(trifluoromethoxy)phenyl]-5-(trifluoromethyl)-1,3-oxazol-2-yl}methoxy)benzamide] | 0.25 (≈ 0.518 µM) | < 1.01 | 0.12 (≈ 0.249 µM)
